Laboratory results taken from PMC11649397, “The study of halogen effect on the reactivity of the serine-targeting covalent warheads” (Frontiers in Chemistry, 2024).

The compounds below were run against T1, hCES1A (Homo sapiens, UniProt P23141) (assay: Inhibition assay on hCES1A (bioluminogenic substrate NLMe)). Details: 3 min incubation; mean ± SD, n = 3; read-out: hCES1A IC50 3 min.
T1 sequence (P23141 18-567): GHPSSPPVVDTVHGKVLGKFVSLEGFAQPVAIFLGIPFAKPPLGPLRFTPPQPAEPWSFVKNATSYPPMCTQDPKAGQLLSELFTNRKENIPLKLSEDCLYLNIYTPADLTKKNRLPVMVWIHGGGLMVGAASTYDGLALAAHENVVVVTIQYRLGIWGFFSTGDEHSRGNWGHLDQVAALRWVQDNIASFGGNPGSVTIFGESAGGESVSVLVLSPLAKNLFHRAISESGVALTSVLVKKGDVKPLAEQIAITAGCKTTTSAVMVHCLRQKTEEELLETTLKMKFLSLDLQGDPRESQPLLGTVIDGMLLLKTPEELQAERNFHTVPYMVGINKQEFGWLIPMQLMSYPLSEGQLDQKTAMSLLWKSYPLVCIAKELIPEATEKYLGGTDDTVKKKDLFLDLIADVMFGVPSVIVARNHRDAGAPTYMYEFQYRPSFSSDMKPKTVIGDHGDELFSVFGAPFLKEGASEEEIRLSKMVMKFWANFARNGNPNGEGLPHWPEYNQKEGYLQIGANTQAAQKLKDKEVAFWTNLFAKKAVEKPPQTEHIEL
Format: biochemical
Method: In this study, a known bioluminogenic probe substrate NLMe was used for human carboxylesterase 1 (hCES1A) inhibition assays. ([Wang et al., 2020]). In brief, the incubation mixture (0.1 mL) consisted of 0.1 M buffer PBS (PH 6.5), hCES1A (0.1 μg/mL, final concentration) and each test compound. […] After 20 min incubation, equal volume of LDR was added to stop reaction. The luminescence signals were monitored in the microplate reader (SpectraMax iD3Molecular Devices, Austria). […]
(§1) The household library of covalent fragments including D and F was from Organic Chemistry […]
(§2) Fig. S1. Partial fragment molecules of a household library targeting to serine. […]
Inhibition assay on hCES1A
In this study, a known bioluminogenic probe substrate NLMe was used for human carboxylesterase 1 (hCES1A) inhibition assays. 2 In brief, the incubation mixture (0.1 mL) consisted of 0.1 M buffer PBS (PH 6.5), hCES1A (0.1 μg/mL, final concentration) and each test compound. […]
After 20 min incubation, equal volume of LDR was added to stop reaction.

Row | SMILES | IC50 [nM]
1 | O=C(c1ccc(Cl)cc1)C(F)F [Compound F1-1] | 58 ± 6
2 | O=C(CF)c1ccc(Cl)cc1 [Compound F1-2] | 1210
3 | O=C(c1ccc(Br)cc1)C(F)(F)F [Compound F-7] | 16.1 ± 2.3
4 | O=C(c1cc(Cl)c(Cl)c(Cl)c1)C(F)(F)F [Compound F-10] | 30 ± 4.5
5 | O=C(c1ccc(C(F)(F)F)cc1)C(F)(F)F [Compound F-11] | > 2000
6 | Nc1ccc(C(=O)C(F)(F)F)cc1 [Compound F-12] | 470 ± 120
7 | COc1ccc(C(=O)C(F)(F)F)cc1 [Compound F-14] | 30.2 ± 12.1
8 | CCc1ccc(C(=O)C(F)(F)F)cc1 [Compound F-15] | 18.7 ± 4.2

Other lines, results leading:

Row | IC50 [nM] | SMILES
9 | 14.4 ± 1.9 | O=C(c1ccc(Cl)cc1)C(F)(F)F [Compound F-1]
10 | 34.1 ± 5.3 | O=C(c1cccc(Cl)c1)C(F)(F)F [Compound F-2]
11 | 11.6 ± 0.7 | O=C(c1ccccc1Cl)C(F)(F)F [Compound F-3]
12 | 10 ± 1.4 | O=C(c1ccc(Cl)c(Cl)c1)C(F)(F)F [Compound F-4]
13 | 17 ± 3 | O=C(c1cccc(Br)c1)C(F)(F)F [Compound F-5]
14 | 9.9 ± 1.01 | O=C(c1ccccc1Br)C(F)(F)F [Compound F-6]
15 | 1700 | O=C(c1ccc(F)cc1)C(F)(F)F [Compound F-8]
16 | 37.7 ± 8.6 | O=C(c1ccc(I)cc1)C(F)(F)F [Compound F-9]

Same assay, conditions: 33 min incubation; mean ± SD, n = 3; read-out: hCES1A IC50 33 min

Row | SMILES | IC50 [nM]
17 | O=C(c1ccc(Cl)cc1)C(F)F [Compound F1-1] | 102 ± 37.4
18 | O=C(CF)c1ccc(Cl)cc1 [Compound F1-2] | 874 ± 92.2
19 | O=C(c1ccc(Br)cc1)C(F)(F)F [Compound F-7] | 2.1 ± 0.6
20 | O=C(c1cc(Cl)c(Cl)c(Cl)c1)C(F)(F)F [Compound F-10] | 2.8 ± 0.4
21 | O=C(c1ccc(C(F)(F)F)cc1)C(F)(F)F [Compound F-11] | > 2000
22 | Nc1ccc(C(=O)C(F)(F)F)cc1 [Compound F-12] | 670 ± 130
23 | COc1ccc(C(=O)C(F)(F)F)cc1 [Compound F-14] | 29.7 ± 20.7
24 | CCc1ccc(C(=O)C(F)(F)F)cc1 [Compound F-15] | 23.8 ± 12.4

Now from value to compound:

Row | IC50 [nM] | SMILES
25 | 1.9 ± 0.2 | O=C(c1ccc(Cl)cc1)C(F)(F)F [Compound F-1]
26 | 2.5 ± 0.4 | O=C(c1cccc(Cl)c1)C(F)(F)F [Compound F-2]
27 | 2.3 ± 0.4 | O=C(c1ccccc1Cl)C(F)(F)F [Compound F-3]
28 | 2.4 ± 0.4 | O=C(c1ccc(Cl)c(Cl)c1)C(F)(F)F [Compound F-4]
29 | 1.7 ± 0.5 | O=C(c1cccc(Br)c1)C(F)(F)F [Compound F-5]
30 | 52.8 ± 15.9 | O=C(c1ccccc1Br)C(F)(F)F [Compound F-6]
31 | 603 ± 107 | O=C(c1ccc(F)cc1)C(F)(F)F [Compound F-8]
32 | 6.2 ± 1.1 | O=C(c1ccc(I)cc1)C(F)(F)F [Compound F-9]

Same assay, conditions: ratio of IC50 at 3 min to IC50 at 33 min

Row | SMILES | hCES1A IC50 Fold Increase
33 | O=C(c1ccc(Cl)cc1)C(F)F [Compound F1-1] | 0.6
34 | O=C(CF)c1ccc(Cl)cc1 [Compound F1-2] | 1.4
35 | O=C(c1ccc(Br)cc1)C(F)(F)F [Compound F-7] | 7.7
36 | O=C(c1cc(Cl)c(Cl)c(Cl)c1)C(F)(F)F [Compound F-10] | 10.7

Continued, values first:

Row | hCES1A IC50 Fold Increase | SMILES
37 | 7.6 | O=C(c1ccc(Cl)cc1)C(F)(F)F [Compound F-1]
38 | 13.6 | O=C(c1cccc(Cl)c1)C(F)(F)F [Compound F-2]
39 | 5.0 | O=C(c1ccccc1Cl)C(F)(F)F [Compound F-3]
40 | 4.2 | O=C(c1ccc(Cl)c(Cl)c1)C(F)(F)F [Compound F-4]
41 | 10.0 | O=C(c1cccc(Br)c1)C(F)(F)F [Compound F-5]
42 | 0.2 | O=C(c1ccccc1Br)C(F)(F)F [Compound F-6]
43 | 2.8 | O=C(c1ccc(F)cc1)C(F)(F)F [Compound F-8]
44 | 6.1 | O=C(c1ccc(I)cc1)C(F)(F)F [Compound F-9]

What follows are compounds tested against T2, hCES2A (Homo sapiens, UniProt O00748) (assay: Inhibition assay on hCES2A (fluorescent substrate FD)). Details: 3 min incubation; mean ± SD, n = 3; read-out: hCES2A IC50 3 min.
T2 sequence (O00748 27-559): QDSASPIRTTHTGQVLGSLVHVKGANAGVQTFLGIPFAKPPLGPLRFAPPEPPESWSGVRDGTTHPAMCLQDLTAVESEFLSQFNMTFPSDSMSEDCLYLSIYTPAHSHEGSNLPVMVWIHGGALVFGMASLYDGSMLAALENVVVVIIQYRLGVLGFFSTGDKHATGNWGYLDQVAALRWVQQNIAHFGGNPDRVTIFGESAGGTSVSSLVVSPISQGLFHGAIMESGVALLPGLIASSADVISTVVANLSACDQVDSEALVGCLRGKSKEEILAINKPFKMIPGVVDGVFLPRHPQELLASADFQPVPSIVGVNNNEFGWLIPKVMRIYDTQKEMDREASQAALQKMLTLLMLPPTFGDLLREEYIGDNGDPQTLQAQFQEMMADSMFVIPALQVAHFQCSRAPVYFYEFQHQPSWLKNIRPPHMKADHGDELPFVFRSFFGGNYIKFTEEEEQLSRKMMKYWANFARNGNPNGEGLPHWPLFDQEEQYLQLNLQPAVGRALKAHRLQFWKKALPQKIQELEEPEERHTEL
Format: biochemical
Method: 1. Detailed experimental, materials, and methods
as §1, §2
Inhibition assay on hCES2A
Human carboxylesterase 2 (hCES2A) inhibition assays were conducted using FD, a known fluorescent substrate. 3 Briefly, hCES2A (0.4 μg/mL, final concentration) was preincubated with analytes/DMSO (as a control group) in PBS (pH 7.4) at 37 °C for 3 min. This was followed by adding the substrate FD (4 μM, final concentration) in the incubation mixture and allowing it to react for 30 min. The fluorescent signals (excitation/emission, 480 nm/525 nm) were continuously recorded by a microplate reader (SpectraMax iD3Molecular Devices, Austria). […]

Row | IC50 [nM] | SMILES
45 | 59.1 ± 9.8 | O=C(c1ccc(Cl)cc1)C(F)(F)F [Compound F-1]
46 | 76.8 ± 10.9 | O=C(c1cccc(Cl)c1)C(F)(F)F [Compound F-2]
47 | 102 ± 20.6 | O=C(c1ccccc1Cl)C(F)(F)F [Compound F-3]

Same assay, conditions: 33 min incubation; mean ± SD, n = 3; read-out: hCES2A IC50 33 min

Row | IC50 [nM] | SMILES
48 | 71.3 ± 19.4 | O=C(c1ccc(Cl)cc1)C(F)(F)F [Compound F-1]
49 | 90 ± 21 | O=C(c1cccc(Cl)c1)C(F)(F)F [Compound F-2]
50 | 85.6 ± 36 | O=C(c1ccccc1Cl)C(F)(F)F [Compound F-3]

What follows are compounds tested against T1, hCES1A (assay: Co-crystallography with hCES1A). Details: 1:5 molar ratio.
Format: binding
Method: Purified hCES1A incubated with F-3 and F-4 at 1:5 M ratio for 1 h at 18°C. Crystallisation screening was performed using commercially available kit sets using sitting drop vapor diffusion at 16°C. Both diffraction-quality crystals were obtained from the condition containing 14.4% peg8000 (w/v), 0.1M MES 6.4, 0.3M CaAc and 20% glycerol. Crystals were flash cooled in liquid nitrogen after cryoprotection in 25% glycerin. Date was collected on 02U1 at Shanghai Synchrotron Radiation Facility (SSRF). Data images were processed using program HKL2000. ([Otwinowski and Minor, 1997]). Crystal structures were solved using molecular replacement with the Phenix software suite using unbound hces1a (Protein Data Bank [PDB] accession number 1MX1 as the search model. Structure refinement was performed using Phenix. ([Adams et al., 2010]). The program COOT was used for manual rebuilding. ([Emsley and Cowtan, 2004]). Molecular graphics images were generated using CCP4MG. ([McNicholas et al., 2011]). […]
fluorogenic probe. 4 Briefly, the incubation mixtures (0.1 mL) contained Tris-HCl buffer, hPL solution (0.25 μg/mL, final concentration), porcine bile salt (0.1 mg/mL, final concentration) and each inhibitor (with different concentrations). […] The fluorescent signals of hydrolytic product were quantified by using the microplate reader (Spectra Max M4, Austria), with the wavelength of 600 nm and 660 nm for excitation and emission, respectively. […]
OPTS, a known fluorogenic probe, was used as the substrate to assess the residual activities of Notum in the presence of each tested compound. […] After preincubated at 37 °C for 1 min, OPTS was added to initiate the hydrolytic reaction and the multi-mode microplate reader (SpectraMax iD3, Molecular Devices, Austria) was used to analyze the florescence signals of the […]
The F-3, F-4, F-10-bound peptides was analysed using the nanoLC-MS/MS system, respectively.6 The purified hCES1A (150 μg, final content) was co-incubated with the small molecule inhibitor F-3/ F-4/ F-10 (100 μM, final concentration) at 4 °C and 25 °C, respectively, for 4h. […]

Row | SMILES | covalent binding mode at the catalytic triad (Ser221) in co-crystal
51 | O=C(c1ccccc1Cl)C(F)(F)F [Compound F-3] | promising covalent binding modes
52 | O=C(c1ccc(Cl)c(Cl)c1)C(F)(F)F [Compound F-4] | forming an expected hemiacetal covalent bond
